Test results published in patent EP2540303A1, “Divalent cation containing compositions and methods for treating and/or preventing enzymatic irritation” (Johnson & Johnson Consumer Companies Inc., priority 2011, dated 2013).
Several values for one entry are separate records, joined by “and”; a condition that tells them apart may be missing. Identical values can stand only once.

What was measured:
[1] = target: T1, trypsin (Bos taurus, UniProt P00760); conditions: at low concentrations, i.e., around 0.001 M; cited from earlier work
T1 sequence (P00760 24-246): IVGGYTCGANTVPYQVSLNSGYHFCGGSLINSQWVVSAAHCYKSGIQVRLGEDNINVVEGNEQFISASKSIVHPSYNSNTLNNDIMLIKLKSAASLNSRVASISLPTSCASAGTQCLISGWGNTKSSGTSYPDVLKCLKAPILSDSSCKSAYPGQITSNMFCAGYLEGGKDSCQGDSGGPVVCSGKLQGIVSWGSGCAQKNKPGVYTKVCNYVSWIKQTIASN

[2] = test system: trypsin; test: Trypsin inhibition (EnzChek protease assay kit), divalent cation salts with and without talc; type: biochemical; conditions: for % synergistic activity relative to hypothetic additive value: (with talc value minus additive value) divided by additive value; for Salt alone trypsin inhibition activities (%): no talc
Procedure: (§1) The objective of the following experiment was to determine whether and to what extent adding a divalent cation to talc inhibited trypsin activity in an in vitro assay. The inhibition of trypsin-induced cleavage of a fluorescent casein peptide was measured using the EnzChek™ protease assay kit, following manufacturer's instructions (EnzChek™ Protease Assay Kits Product Information, Revised; Molecular Probes, Eugene OR). […] Trypsin working solution (Sigma, St. Louis, MO, unit/mL) was prepared in a portion of the digestion buffer provided in the assay kit (the digestion buffer provided in the assay kit comprises, in total, 260mL of 200nM Tris-HCl, pH7.8, containing 40mM sodium azide). Stock solution of BODIPY FL casein (the trypsin substrate, comprising a casein derivative labeled with a pH-insensitive green fluorescent protein, mg/mL) was prepared by adding 0.2 mL of phosphate buffered saline (PBS) to the substrate vials provided in kit, allowing sufficient time at room temperature for the substrate to dissolve fully (each substrate vial provided in the kit contains 200µg of BODIPY FL casein lyophilized from phosphate-buffered saline (PBS)). The final substrate working solution (10 microgram/mL) was prepared by dilution of 0.2 mL of the stock solution of BODIPY FL with 19.8 mL of digestion buffer (pH 7.8). To detect enzyme activity, 100µL of the BODIPY FL casein working solution was added to 50µL of trypsin working solution (containing 100U of trypsin) and 50µl of the solution of the required test material (if required) . Following incubation of the trypsin, with or without the test materials, with the BODIPY fluorescent casein substrate, at room temperature for one hour, fluorescence was measured (excitation 485 nm /emission 530 nm) using a SpectraMax microtiter plate reader (Molecular Devices Corporation, Sunnyvale, CA) and Softmax Pro software (Molecular Devices Corporation). Each experiment was performed in three replicates. The percentage activity is quoted with comparison to results obtained from the assay performed without the addition of a test substrate.

[3] = test system: trypsin; test: Inhibition of trypsin-induced cleavage of fluorescent casein (EnzChek protease assay kit), salts in PBS; type: biochemical; conditions: acetate monohydrate
Procedure: as §1, with “The” for “The objective of the following experiment was to determine whether and to what extent adding a divalent cation to talc inhibited trypsin activity in an in vitro assay. The”, “Following incubation of the trypsin, with or without the test materials, with the BODIPY fluorescent casein substrate, at room temperature for one hour, fluorescence was measured (excitation 485 nm /emission 530 nm) using a SpectraMax microtiter plate reader (Molecular Devices Corporation, Sunnyvale, CA) and Softmax Pro software (Molecular Devices Corporation). Each experiment was performed in three replicates. The percentage activity is quoted with comparison to results obtained from the assay performed without the addition of a test substrate.” left out

[4] = test system: trypsin; test: Trypsin inhibition (EnzChek protease assay kit), zinc oxide/acid mixtures and zinc oxide containing formulations; type: biochemical; conditions: Table 5
Procedure: The objective of the following experiment was to determine whether and to what extent adding an acid to a formulation containing zinc oxide had on inhibition of trypsin activity in an in vitro assay. The inhibition of trypsin-induced cleavage of a fluorescent casein peptide was measured using the EnzChek^TM protease assay kit, following manufacturer's instructions (EnzChek^TM Protease Assay Kits Product Information, Revised; Molecular Probes, Eugene OR). Mixtures of zinc oxide and acid at different concentrations were prepared in lx PBS (pH 7.4) and their pH was recorded as listed in the Tables 5-8. Trypsin working solution (Sigma, St. Louis, MO, unit/mL) was prepared in a portion of the digestion buffer provided in the assay kit (the digestion buffer provided in the assay kit comprises, in total, 260mL of 200nM Tris-HCl, pH7.8, containing 40mM sodium azide). Stock solution of BODIPY FL casein (the trypsin substrate, comprising a casein derivative labeled with a pH-insensitive green fluorescent proten, mg/mL) was prepared by adding 0.2 mL of phosphate buffered saline (PBS) to the substrate vials provided in kit, allowing sufficient time at room temperature for the substrate to dissolve fully (each substrate vial provided in the kit contains 200µg of BODIPY FL casein lyophilized from phosphate-buffered saline (PBS)). The final substrate working solution (10 microgram/mL) was prepared by dilution of 0.2 mL of the stock solution of BODIPY FL with 19.8 mL of digestion buffer (pH 7.8). To detect enzyme activity, 100µL of the BODIPY FL casein working solution was added to 50µL of trypsin working solution (containing 100U of trypsin) and 50 µl of the solution of the required test material (if required). Following incubation of the trypsin, with or without the test materials (50 µl), with the BODIPY fluorescent casein substrate, at room temperature for one hour, fluorescence was measured (excitation 485 nm /emission 530 nm) using a SpectraMax microtiter plate reader (Molecular Devices Corporation, Sunnyvale, CA) and Softmax Pro software (Molecular Devices Corporation). Each experiment was performed in three replicates.
For preparations, samples were diluted in lx PBS at 1:10 ratio and subjected to centrifugation at 13,200 rpm for 1 min using Eppendorf Centrifuge (Model 5415D, Eppendorf AG, Hamburg, Germany) to remove the solid formulation ingredients. The supernatants (50 µl) were used for trypsin inhibitory activity analyses as described above. For preparations, samples were diluted in 10, or 20 or 40 % ethanol and subjected to centrifugation at 13,200 rpm for 1 min using Eppendorf Centrifuge (Model 5415D, Eppendorf AG, Hamburg, Germany) to remove the solid formulation ingredients. The supernatants (50 µl) were used for trypsin inhibition assay. […] The percentage activity is quoted with comparison to results obtained from the assay performed without the addition of a test substrate.
For the above study, the results are an average of three independent experiments, wherein the samples, which were diluted at 1:10 ratio in lx PBS solutions containing 10%, 20% or 40% ethanol, were tested in triplicates.

[5] = Table 3, salt alone plus talc alone (8.55%), all at 0.1% (g/mL)
[6] = Table 4, 0.1% MgCl2 and 1% talc
[7] = Table 4, 0.5% MgCl2 and 1% talc

[Ag+] [Ag+]
inhibition of the esterase activity of trypsin [1]: inhibited the esterase activity of trypsin

CC(=O)[O-].CC(=O)[O-].O.[Ca+2] [Calcium acetate monohydrate]
% synergistic activity relative to hypothetic additive value ([2]; Table 3, all at 0.1% (g/mL)): 3.10% | Salt alone trypsin inhibition activities (%) ([2]; Table 3, salt 0.1% (g/mL)): 15.31% | Hypothetically calculated additive value of salt and Talc trypsin inhibition activities (%) [2, 5]: 23.86%

[Ca+2].[Cl-].[Cl-] [Calcium chloride]
% synergistic activity relative to hypothetic additive value ([2]; Table 3, all at 0.1% (g/mL)): -0.26% | Salt alone trypsin inhibition activities (%) ([2]; Table 3, salt 0.1% (g/mL)): 17.95% | Hypothetically calculated additive value of salt and Talc trypsin inhibition activities (%) [2, 5]: 26.50%

CC(=O)[O-].CC(=O)[O-].O.[Cu+2] [Copper (II) acetate monohydrate]
% Trypsin inhibitory activity [3]: 66.53% and 95.17%

[Cu+2] [Cu++]
inhibition of the esterase activity of trypsin [1]: inhibited the esterase activity of trypsin

[Hg+2] [Hg++]
inhibition of the esterase activity of trypsin [1]: inhibited the esterase activity of trypsin

O.O.O.O.[Cl][Fe][Cl] [Iron (II) chloride tetrahydrate]
% synergistic activity relative to hypothetic additive value ([2]; Table 3, all at 0.1% (g/mL)): -12.35% | Salt alone trypsin inhibition activities (%) ([2]; Table 3, salt 0.1% (g/mL)): 65.07% | Hypothetically calculated additive value of salt and Talc trypsin inhibition activities (%) [2, 5]: 73.62%

CC(=O)[O-].CC(=O)[O-].O.O.O.O.[Mg+2] [Magnesium acetate tetrahydrate]
% synergistic activity relative to hypothetic additive value ([2]; Table 3, all at 0.1% (g/mL)): 90.09% | Salt alone trypsin inhibition activities (%) ([2]; Table 3, salt 0.1% (g/mL)): 0.83% | Hypothetically calculated additive value of salt and Talc trypsin inhibition activities (%) [2, 5]: 9.38%

[Cl-].[Cl-].[Mg+2] [Magnesium chloride]
% synergistic activity relative to hypothetic additive value ([2]; Table 3, all at 0.1% (g/mL)): 50.75% | Salt alone trypsin inhibition activities (%) ([2]; Table 3, salt 0.1% (g/mL)): 4.75% | Hypothetically calculated additive value of salt and Talc trypsin inhibition activities (%) [2, 5]: 13.30% | With 1% Talc trypsin inhibition activities (%) ([2]; Table 4, 0.1% MgCl2 (g/mL) with 1% talc): 25.43% | Salt alone trypsin inhibition activities (%) ([2]; Table 4, 0.1% MgCl2 (g/mL)): 9.02% | % synergistic activity relative to hypothetical additive value [2, 6]: 104.42% | Hypothetically calculated additive value of salt and Talc trypsin inhibition activities (%) [2, 6]: 12.44% | With 1% Talc trypsin inhibition activities (%) ([2]; Table 4, 0.5% MgCl2 (g/mL) with 1% talc): 32.84% | Salt alone trypsin inhibition activities (%) ([2]; Table 4, 0.5% MgCl2 (g/mL)): 19.51% | % synergistic activity relative to hypothetical additive value [2, 7]: 43.22% | Hypothetically calculated additive value of salt and Talc trypsin inhibition activities (%) [2, 7]: 22.93% | With 1% Talc trypsin inhibition activities (%) ([2]; Table 4, 1% MgCl2 (g/mL) with 1% talc): 40.42% | Salt alone trypsin inhibition activities (%) ([2]; Table 4, 1% MgCl2 (g/mL)): 22.13% | % synergistic activity relative to hypothetical additive value ([2]; Table 4, 1% MgCl2 and 1% talc): 58.20% | Hypothetically calculated additive value of salt and Talc trypsin inhibition activities (%) ([2]; Table 4, 1% MgCl2 and 1% talc): 25.55% | trypsin inhibition (in words) ([2]; combination of talc and magnesium chloride): synergistic increase in trypsin inhibition | trypsin inhibitory activity (in words) ([2]; talc or magnesium chloride alone): moderate to low levels of trypsin inhibitory activity

CC(=O)[O-].CC(=O)[O-].[Zn+2] [Zinc acetate dihydrate]
% synergistic activity relative to hypothetic additive value ([2]; Table 3, all at 0.1% (g/mL)): -15.70% | Salt alone trypsin inhibition activities (%) ([2]; Table 3, salt 0.1% (g/mL)): 62.84% | Hypothetically calculated additive value of salt and Talc trypsin inhibition activities (%) [2, 5]: 71.39%

[Cl-].[Cl-].[Zn+2] [Zinc chloride]
% synergistic activity relative to hypothetic additive value ([2]; Table 3, all at 0.1% (g/mL)): -13.01% | Salt alone trypsin inhibition activities (%) ([2]; Table 3, salt 0.1% (g/mL)): 81.07% | Hypothetically calculated additive value of salt and Talc trypsin inhibition activities (%) [2, 5]: 89.62%

[Zn+2] [Zn++]
inhibition of the esterase activity of trypsin [1]: to a lesser extent

[O]=[Zn] [ZnO, zinc oxide]
% Trypsin inhibitory activity ([4]; 0.1% ZnO, 0.01 % acetic acid, pH 7.28): 1.85+/-1.34% | % Trypsin inhibitory activity ([4]; 0.1% ZnO, 0.05% acetic acid, pH 6.03): 49.16+/-1.43% | % Trypsin inhibitory activity ([4]; 0.1% ZnO, No acetic acid, pH 7.61): -2.6+/-2.76% | % Trypsin inhibitory activity ([4]; 1% ZnO, 0.01 % acetic acid, pH 7.85): 15.82+/-1.68% | % Trypsin inhibitory activity ([4]; 1% ZnO, 0.05% acetic acid, pH 6.08): 58.19+/-0.73% | % Trypsin inhibitory activity ([4]; 1% ZnO, No acetic acid, pH 8.07): 5.40 +/- 1.24% | trypsin inhibitory activity (in words) ([4]; mixtures of zinc oxide and acetic acid): have trypsin inhibitory activity, which is dose-dependent | protease activity (in words) ([4]; zinc oxide without acid): minimal protease activity

CC(=O)O [acetic acid]
% Trypsin inhibitory activity ([4]; No ZnO, 0.01 % acetic acid, pH 6.84): -11.18+/-2.61% | % Trypsin inhibitory activity ([4]; No ZnO, 0.05% acetic acid, pH 4.75): 25.81+/-2.13%
